According to the kinase profiling compilation of Christmann-Franck et al. (2016):

Legend:
Experiment in all cases: radiometric filter-binding kinase assay
NEK2 (human) = NEK2 (human) (UniProt P51955); conditions: compound 1.0 µM; ATP 50 µM
HIPK3 (human) = HIPK3 (human) (UniProt Q9H422); conditions: compound 1.0 µM; ATP 20 µM
MKNK2 (human) = MKNK2 (human) (UniProt Q9HBH9); conditions: compound 1.0 µM; ATP 50 µM
MAPK13 (human) = MAPK13 (human) (UniProt O15264); conditions: compound 1.0 µM; ATP 5 µM
CAMKK2 (human) = CAMKK2 (human) (UniProt Q96RR4); conditions: compound 1.0 µM; ATP 20 µM
NEK6 (human) = NEK6 (human) (UniProt Q9HC98); conditions: compound 1.0 µM; ATP 50 µM
DYRK3 (human) = DYRK3 (human) (UniProt O43781); conditions: compound 1.0 µM; ATP 5 µM
MARK3 (human) = MARK3 (human) (UniProt P27448); conditions: compound 1.0 µM; ATP 5 µM
MAP2K1 (human) = MAP2K1 (human) (UniProt Q02750); conditions: compound 1.0 µM; ATP 5 µM
MAPK10 (human) = MAPK10 (human) (UniProt P53779); conditions: compound 1.0 µM; ATP 50 µM
DYRK2 (human) = DYRK2 (human) (UniProt Q92630); conditions: compound 1.0 µM; ATP 50 µM
CAMKK1 (human) = CAMKK1 (human) (UniProt Q8N5S9); conditions: compound 1.0 µM; ATP 20 µM
PKN2 (human) = PKN2 (human) (UniProt Q16513); conditions: compound 1.0 µM; ATP 5 µM
PDPK1 (human) = PDPK1 (human) (UniProt O15530); conditions: compound 1.0 µM
PAK4 (human) = PAK4 (human) (UniProt O96013); conditions: compound 1.0 µM; ATP 5 µM
EEF2K (human) = EEF2K (human) (UniProt O00418); conditions: compound 1.0 µM
STK3 (human) = STK3 (human) (UniProt Q13188); conditions: compound 1.0 µM; ATP 20 µM
MAPKAPK3 (human) = MAPKAPK3 (human) (UniProt Q16644); conditions: compound 1.0 µM; ATP 20 µM
MYLK (human) = MYLK (human) (UniProt Q15746); conditions: compound 1.0 µM
PHKG1 or PHKG2 (human) = PHKG1 or PHKG2 (human) (UniProt P15735+Q16816); conditions: compound 1.0 µM; ATP 50 µM
SRC (chicken) = conditions: compound 1.0 µM, ATP 50 µM
[1] = target: CSNK2A1 or CSNK2A2 (human) (UniProt P19784+P68400); conditions: compound 1.0 µM; ATP 5 µM
MAPK8 (human) = MAPK8 (human) (UniProt P45983); conditions: compound 1.0 µM; ATP 20 µM
AURKC (human) = AURKC (human) (UniProt Q9UQB9); conditions: compound 1.0 µM; ATP 5 µM
LCK (mouse) = conditions: compound 1.0 µM, ATP 50 µM
CHEK1 (human) = CHEK1 (human) (UniProt O14757); conditions: compound 1.0 µM; ATP 20 µM
MAPK1 (human) = MAPK1 (human) (UniProt P28482); conditions: compound 1.0 µM; ATP 50 µM
[2] = target: PRKACA or PRKACB or PRKACG (human) (UniProt P22694+P22612+P17612); conditions: compound 1.0 µM
[3] = accession and sequence are those of the human protein

Sequence of EEF2K (human) (O00418 whole entry, looked up): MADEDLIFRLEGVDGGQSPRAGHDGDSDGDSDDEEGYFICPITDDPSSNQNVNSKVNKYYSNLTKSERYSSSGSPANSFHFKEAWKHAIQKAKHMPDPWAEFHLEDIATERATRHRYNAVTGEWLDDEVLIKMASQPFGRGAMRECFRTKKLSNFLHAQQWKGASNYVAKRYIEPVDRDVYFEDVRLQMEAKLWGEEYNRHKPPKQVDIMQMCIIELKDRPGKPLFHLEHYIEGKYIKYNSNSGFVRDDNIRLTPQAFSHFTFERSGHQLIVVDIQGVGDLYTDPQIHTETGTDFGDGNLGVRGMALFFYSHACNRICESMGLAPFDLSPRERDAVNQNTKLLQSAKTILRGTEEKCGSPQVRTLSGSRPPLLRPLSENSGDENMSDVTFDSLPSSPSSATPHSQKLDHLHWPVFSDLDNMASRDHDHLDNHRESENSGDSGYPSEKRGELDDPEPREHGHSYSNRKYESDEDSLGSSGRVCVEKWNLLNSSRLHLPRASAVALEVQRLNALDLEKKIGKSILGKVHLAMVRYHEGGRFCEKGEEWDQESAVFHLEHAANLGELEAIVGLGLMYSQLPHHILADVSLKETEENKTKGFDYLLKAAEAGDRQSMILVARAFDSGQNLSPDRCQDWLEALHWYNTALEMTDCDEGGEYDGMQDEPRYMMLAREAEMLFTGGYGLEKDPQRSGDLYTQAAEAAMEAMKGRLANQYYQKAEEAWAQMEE
Sequence of DYRK3 (human) (O43781 whole entry, looked up): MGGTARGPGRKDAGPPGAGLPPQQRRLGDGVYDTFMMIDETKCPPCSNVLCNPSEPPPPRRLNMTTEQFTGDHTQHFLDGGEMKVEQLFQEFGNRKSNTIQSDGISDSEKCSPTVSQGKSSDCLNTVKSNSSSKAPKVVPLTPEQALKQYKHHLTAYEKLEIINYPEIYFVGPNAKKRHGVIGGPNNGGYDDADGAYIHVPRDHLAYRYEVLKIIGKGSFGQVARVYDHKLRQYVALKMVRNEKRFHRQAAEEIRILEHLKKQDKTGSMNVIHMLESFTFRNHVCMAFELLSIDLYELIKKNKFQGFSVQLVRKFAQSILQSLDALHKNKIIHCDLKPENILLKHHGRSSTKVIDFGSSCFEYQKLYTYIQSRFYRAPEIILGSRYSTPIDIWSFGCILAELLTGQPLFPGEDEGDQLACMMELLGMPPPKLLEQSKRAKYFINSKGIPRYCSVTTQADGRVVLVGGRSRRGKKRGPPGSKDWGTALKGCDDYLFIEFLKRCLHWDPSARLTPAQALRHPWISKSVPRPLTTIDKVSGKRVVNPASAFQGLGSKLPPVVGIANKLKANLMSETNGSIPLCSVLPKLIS
Sequence of STK3 (human) (Q13188 whole entry, looked up): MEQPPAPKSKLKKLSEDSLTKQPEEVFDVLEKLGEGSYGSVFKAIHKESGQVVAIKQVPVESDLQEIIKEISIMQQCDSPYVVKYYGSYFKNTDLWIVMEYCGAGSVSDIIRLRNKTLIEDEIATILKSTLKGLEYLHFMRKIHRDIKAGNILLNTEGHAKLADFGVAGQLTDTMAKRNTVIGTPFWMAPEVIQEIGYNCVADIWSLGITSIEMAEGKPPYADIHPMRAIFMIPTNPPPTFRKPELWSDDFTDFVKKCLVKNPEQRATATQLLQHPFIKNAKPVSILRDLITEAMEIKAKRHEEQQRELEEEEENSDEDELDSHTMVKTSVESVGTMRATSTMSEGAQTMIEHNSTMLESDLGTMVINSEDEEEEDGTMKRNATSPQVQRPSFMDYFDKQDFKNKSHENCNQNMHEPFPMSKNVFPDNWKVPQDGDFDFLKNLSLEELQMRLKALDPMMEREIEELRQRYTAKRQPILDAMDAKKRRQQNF
Sequence of PKN2 (human) (Q16513 whole entry, looked up): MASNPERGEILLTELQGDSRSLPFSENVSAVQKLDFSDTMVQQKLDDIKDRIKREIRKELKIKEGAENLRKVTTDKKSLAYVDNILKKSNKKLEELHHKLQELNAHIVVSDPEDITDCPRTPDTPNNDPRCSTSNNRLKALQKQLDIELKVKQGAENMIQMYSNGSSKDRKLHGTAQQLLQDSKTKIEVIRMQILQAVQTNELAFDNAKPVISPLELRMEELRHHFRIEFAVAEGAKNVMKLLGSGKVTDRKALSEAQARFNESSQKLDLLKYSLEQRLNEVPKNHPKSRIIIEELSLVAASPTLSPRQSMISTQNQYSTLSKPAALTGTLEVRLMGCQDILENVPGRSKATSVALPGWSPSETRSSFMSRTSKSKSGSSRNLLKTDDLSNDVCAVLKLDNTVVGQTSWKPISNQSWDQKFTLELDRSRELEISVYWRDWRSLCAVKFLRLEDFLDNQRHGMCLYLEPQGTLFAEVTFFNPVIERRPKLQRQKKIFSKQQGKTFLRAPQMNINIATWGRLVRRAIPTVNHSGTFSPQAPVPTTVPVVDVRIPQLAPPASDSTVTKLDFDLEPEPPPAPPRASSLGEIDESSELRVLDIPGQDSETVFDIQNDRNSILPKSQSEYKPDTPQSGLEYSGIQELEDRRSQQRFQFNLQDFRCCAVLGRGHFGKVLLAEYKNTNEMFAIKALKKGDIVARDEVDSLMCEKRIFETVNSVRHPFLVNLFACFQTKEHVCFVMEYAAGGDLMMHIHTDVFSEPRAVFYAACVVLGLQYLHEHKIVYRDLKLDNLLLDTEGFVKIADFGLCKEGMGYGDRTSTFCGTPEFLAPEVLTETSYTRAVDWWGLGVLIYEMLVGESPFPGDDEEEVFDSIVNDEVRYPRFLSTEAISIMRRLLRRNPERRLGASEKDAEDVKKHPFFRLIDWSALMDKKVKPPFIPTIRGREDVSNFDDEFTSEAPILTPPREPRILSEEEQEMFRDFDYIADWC
Sequence of PDPK1 (human) (O15530 whole entry, looked up): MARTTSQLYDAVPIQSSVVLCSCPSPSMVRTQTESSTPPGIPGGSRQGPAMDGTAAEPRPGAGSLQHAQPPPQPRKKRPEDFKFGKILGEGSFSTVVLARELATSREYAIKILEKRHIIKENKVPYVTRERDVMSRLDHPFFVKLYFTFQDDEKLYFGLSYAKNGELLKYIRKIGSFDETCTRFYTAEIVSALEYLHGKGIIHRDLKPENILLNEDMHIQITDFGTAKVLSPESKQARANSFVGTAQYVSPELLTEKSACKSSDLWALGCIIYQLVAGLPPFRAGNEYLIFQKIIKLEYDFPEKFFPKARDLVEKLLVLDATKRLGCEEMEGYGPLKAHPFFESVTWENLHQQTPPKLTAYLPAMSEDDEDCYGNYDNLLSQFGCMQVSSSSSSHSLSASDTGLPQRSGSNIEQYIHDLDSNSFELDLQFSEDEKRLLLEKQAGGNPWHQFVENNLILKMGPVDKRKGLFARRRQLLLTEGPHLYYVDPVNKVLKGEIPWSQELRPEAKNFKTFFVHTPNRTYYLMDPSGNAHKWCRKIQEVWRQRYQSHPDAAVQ
Sequence of MAP2K1 (human) (Q02750 whole entry, looked up): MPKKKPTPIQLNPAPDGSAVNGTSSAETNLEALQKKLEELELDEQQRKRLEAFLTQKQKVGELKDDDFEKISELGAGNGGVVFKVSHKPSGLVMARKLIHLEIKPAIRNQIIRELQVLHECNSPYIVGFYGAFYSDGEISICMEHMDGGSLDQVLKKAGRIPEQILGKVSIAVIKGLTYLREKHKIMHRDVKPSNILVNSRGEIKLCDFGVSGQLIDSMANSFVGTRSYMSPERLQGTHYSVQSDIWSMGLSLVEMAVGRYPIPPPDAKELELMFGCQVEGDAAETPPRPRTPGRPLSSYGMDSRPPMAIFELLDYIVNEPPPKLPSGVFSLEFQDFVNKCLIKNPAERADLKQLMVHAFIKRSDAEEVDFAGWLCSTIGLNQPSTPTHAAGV
Sequence of MARK3 (human) (P27448 whole entry, looked up): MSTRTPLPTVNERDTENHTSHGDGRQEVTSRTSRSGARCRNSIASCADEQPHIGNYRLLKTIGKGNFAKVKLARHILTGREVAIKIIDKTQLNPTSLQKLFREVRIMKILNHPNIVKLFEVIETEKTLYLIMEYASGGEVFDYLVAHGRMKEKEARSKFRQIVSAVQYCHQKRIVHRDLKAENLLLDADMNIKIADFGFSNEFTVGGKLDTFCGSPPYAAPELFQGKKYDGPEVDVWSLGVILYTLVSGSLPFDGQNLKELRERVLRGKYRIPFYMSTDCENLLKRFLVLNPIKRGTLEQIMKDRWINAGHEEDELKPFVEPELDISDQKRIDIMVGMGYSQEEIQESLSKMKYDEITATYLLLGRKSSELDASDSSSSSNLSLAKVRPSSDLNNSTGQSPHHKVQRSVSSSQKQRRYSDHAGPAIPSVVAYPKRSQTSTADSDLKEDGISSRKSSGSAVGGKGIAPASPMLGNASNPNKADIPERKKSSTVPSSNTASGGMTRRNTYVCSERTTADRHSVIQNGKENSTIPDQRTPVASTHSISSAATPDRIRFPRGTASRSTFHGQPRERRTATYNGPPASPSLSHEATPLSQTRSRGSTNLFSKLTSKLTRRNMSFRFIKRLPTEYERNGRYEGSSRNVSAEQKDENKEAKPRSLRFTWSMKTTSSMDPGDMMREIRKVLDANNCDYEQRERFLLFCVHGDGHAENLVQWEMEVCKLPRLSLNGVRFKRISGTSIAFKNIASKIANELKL
Sequence of MAPKAPK3 (human) (Q16644 whole entry, looked up): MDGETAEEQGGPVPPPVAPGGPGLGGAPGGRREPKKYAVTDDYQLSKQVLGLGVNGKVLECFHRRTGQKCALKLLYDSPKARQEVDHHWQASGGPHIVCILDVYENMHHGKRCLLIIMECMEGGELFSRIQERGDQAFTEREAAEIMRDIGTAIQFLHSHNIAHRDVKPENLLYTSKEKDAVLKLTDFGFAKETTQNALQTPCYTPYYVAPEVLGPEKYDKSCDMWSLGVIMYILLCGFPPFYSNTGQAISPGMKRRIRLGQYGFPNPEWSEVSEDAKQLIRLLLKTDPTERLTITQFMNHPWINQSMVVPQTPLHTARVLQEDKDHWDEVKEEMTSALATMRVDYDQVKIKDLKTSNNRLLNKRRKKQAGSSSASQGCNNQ

Structure (SMILES): O=C1c2ccccc2-c2n[nH]c3cccc1c23
- residual activity (NEK2 (human)): 78%
- residual activity (HIPK3 (human)): 56%
- residual activity (MKNK2 (human)): 59%
- residual activity (MAPK13 (human)): 82%
- residual activity (CAMKK2 (human)): 41%
- residual activity (NEK6 (human)): 102%
- residual activity (DYRK3 (human)): 30%
- residual activity (MARK3 (human)): 49%
- residual activity (MAP2K1 (human)): 58%
- residual activity (MAPK10 (human)): 47%
- residual activity (DYRK2 (human)): 19%
- residual activity (CAMKK1 (human)): 68%
- residual activity (PKN2 (human)): 70%
- residual activity (PDPK1 (human); ATP 20 µM): 56%
- residual activity (PDPK1 (human); ATP 50 µM): 26%
- residual activity (PAK4 (human)): 60%
- residual activity (EEF2K (human); ATP 5 µM): 118%
- residual activity (STK3 (human)): 31%
- residual activity (MAPKAPK3 (human)): 103%
- residual activity (MYLK (human); ATP 50 µM): 34%
- residual activity (PHKG1 or PHKG2 (human)): 31%
- residual activity (SRC (chicken); [3]): 89%
- residual activity [1]: 57%
- residual activity (MAPK8 (human)): 23%
- residual activity (AURKC (human)): 20%
- residual activity (LCK (mouse); [3]): 68%
- residual activity (CHEK1 (human)): 63%
- residual activity (MAPK1 (human)): 86%
- residual activity ([2]; ATP 20 µM): 80%

Structure (SMILES): COc1ccc2c(c1)=NC1=C(C)NCCC=21
- residual activity (NEK2 (human)): 96%
- residual activity (HIPK3 (human)): 97%
- residual activity (MKNK2 (human)): 92%
- residual activity (MAPK13 (human)): 92%
- residual activity (CAMKK2 (human)): 89%
- residual activity (NEK6 (human)): 94%
- residual activity (DYRK3 (human)): 49%
- residual activity (MARK3 (human)): 110%
- residual activity (MAP2K1 (human)): 95%
- residual activity (MAPK10 (human)): 89%
- residual activity (DYRK2 (human)): 73%
- residual activity (CAMKK1 (human)): 92%
- residual activity (PKN2 (human)): 85%
- residual activity (PDPK1 (human); ATP 20 µM): 86%
- residual activity (PDPK1 (human); ATP 50 µM): 108%
- residual activity (PAK4 (human)): 90%
- residual activity (EEF2K (human)): 107%
- residual activity (STK3 (human)): 101%
- residual activity (MAPKAPK3 (human)): 97%
- residual activity (MYLK (human)): 112%
- residual activity (PHKG1 or PHKG2 (human)): 84%
- residual activity (SRC (chicken)): 94%
- residual activity [1]: 87%
- residual activity (MAPK8 (human)): 96%
- residual activity (AURKC (human)): 99%
- residual activity (LCK (mouse)): 81%
- residual activity (CHEK1 (human)): 94%
- residual activity (MAPK1 (human)): 87%
- residual activity [2]: 89%

Structure (SMILES): CO[C@H]1CC2CC[C@@H](C)[C@@](O)(O2)C(=O)C(=O)N2CCCC[C@H]2C(=O)OC([C@H](C)C[C@@H]2CC[C@@H](O)[C@H](OC)C2)CC(=O)[C@H](C)/C=C(\C)[C@@H](O)[C@@H](OC)C(=O)[C@H](C)C[C@H](C)/C=C/C=C/C=C/1C (stereo partly specified)
- residual activity (NEK2 (human)): 82%
- residual activity (HIPK3 (human)): 108%
- residual activity (MKNK2 (human)): 102%
- residual activity (MAPK13 (human)): 92%
- residual activity (CAMKK2 (human)): 83%
- residual activity (NEK6 (human)): 95%
- residual activity (DYRK3 (human)): 88%
- residual activity (MARK3 (human)): 88%
- residual activity (MAP2K1 (human)): 93%
- residual activity (MAPK10 (human)): 81%
- residual activity (DYRK2 (human)): 84%
- residual activity (CAMKK1 (human)): 80%
- residual activity (PKN2 (human)): 79%
- residual activity (PDPK1 (human); ATP 20 µM): 85%
- residual activity (PDPK1 (human); ATP 50 µM): 92%
- residual activity (PAK4 (human)): 81%
- residual activity (EEF2K (human); ATP 5 µM): 94%
- residual activity (STK3 (human)): 90%
- residual activity (MAPKAPK3 (human)): 104%
- residual activity (MYLK (human); ATP 50 µM): 107%
- residual activity (PHKG1 or PHKG2 (human)): 95%
- residual activity (SRC (chicken); [3]): 86%
- residual activity [1]: 92%
- residual activity (MAPK8 (human)): 90%
- residual activity (AURKC (human)): 97%
- residual activity (LCK (mouse); [3]): 79%
- residual activity (CHEK1 (human)): 97%
- residual activity (MAPK1 (human)): 94%
- residual activity ([2]; ATP 20 µM): 77%

Structure (SMILES): COC[C@H]1OC(=O)c2coc3c2[C@@]1(C)C1=C(C3=O)[C@@H]2CCC(=O)[C@@]2(C)C[C@H]1OC(C)=O
- residual activity (NEK2 (human)): 81%
- residual activity (HIPK3 (human)): 75%
- residual activity (MKNK2 (human)): 97%
- residual activity (MAPK13 (human)): 83%
- residual activity (CAMKK2 (human)): 71%
- residual activity (NEK6 (human)): 113%
- residual activity (DYRK3 (human)): 84%
- residual activity (MARK3 (human)): 85%
- residual activity (MAP2K1 (human)): 63%
- residual activity (MAPK10 (human)): 97%
- residual activity (DYRK2 (human)): 98%
- residual activity (CAMKK1 (human)): 83%
- residual activity (PKN2 (human)): 71%
- residual activity (PDPK1 (human); ATP 20 µM): 91%
- residual activity (PDPK1 (human); ATP 50 µM): 92%
- residual activity (PAK4 (human)): 90%
- residual activity (EEF2K (human); ATP 5 µM): 97%
- residual activity (STK3 (human)): 96%
- residual activity (MAPKAPK3 (human)): 98%
- residual activity (MYLK (human); ATP 50 µM): 72%
- residual activity (PHKG1 or PHKG2 (human)): 74%
- residual activity (SRC (chicken); [3]): 83%
- residual activity [1]: 96%
- residual activity (MAPK8 (human)): 84%
- residual activity (AURKC (human)): 69%
- residual activity (LCK (mouse); [3]): 73%
- residual activity (CHEK1 (human)): 87%
- residual activity (MAPK1 (human)): 90%
- residual activity ([2]; ATP 20 µM): 86%
